For this experiment, the system named is FaDu cells. Nature of the experiment: In vitro invasion test (Boyden chamber), FaDu. Format: cell-based. The settings on record: NGF 16 nM or proNGF N.C. 0.5 nM, untreated cells = 100%. As for the experimental part: (0.5 nM) for a period of 20 hours. The untreated cells represent the control and determine a base invasion of 100%.
The Boyden Chambers (Transwell®; BD Biosciences; France) were recovered from a biological matrix (type 1 collagen from rats diluted to 400 μg·mL-1 in EMEM-0.1% FCS medium; Millipore). The cells were then seeded with 100,000 cells/well on PET membranes (polyethylene terephtalate; dia.: 10.5 mm; porosity: 8 μm) of Boyden Chambers and held in an EMEM-0.1% FCS medium. […] (0.5 nM) in the lower part. After 20 hours of culture, they were washed twice with PBS 1× and fixed (ice cold methanol; 15 min; −20° C.). The non-invasive cells (upper face of the Transwell®) were eliminated by scraping. The number of cells was estimated after staining with Hoechst 33 258 (1 mM; 30 min; 20° C.) by counting the nuclei thereof using fluorescence microscopy on a total of 5 five randomly chosen fields (lens 10×; λ-excitation: 345 nm; λ-emission: 478 nm; Eclipse Ti) using the ImageJ software. Each experiment was performed in triplicate. Statistical analysis of the results was performed by analysis of variance ANOVA (Bonferroni post-hoc test).

Data on 1 substance can be found in patent US20170258871A1, “COMBINED USE OF A TRKA INHIBITOR AND AN EPHA2 INHIBITOR FOR USING IN THE TREATMENT OF SOLID CANCERS, AND METHOD FOR THE PROGNOSIS OF SURVIVAL OF A PATIENT WHO HAS A SOLID CANCER” (UNIVERSITE DES SCIENCES ET TECHNOLOGIES DE LILLE, priority 2014, published 2017).

“NGF: Nerve Growth Factor; recombinant human β NGF supplied by Scil Proteins”: the “cell invasion under growth factor” value is on record as “did not respond”.
